Holding throughout (type): cell-based
Assay [1] concerns NS3/4a protease inhibitor resistant variant R155K in genotype 1a transient HCV replicon. The assay is described as follows: Transient-transfected HCV replicon, genotype 1a R155K. The note with it: Hepatitis C virus, 72 h, read-out: EC50 1A R155K.
Assay [2] relates to NS3/4a protease inhibitor resistant variant D168A in genotype 1b transient HCV replicon. The assay is described as follows: Transient-transfected HCV replicon, genotype 1b D168A. The settings on record: Hepatitis C virus, 72 h, read-out: EC50 1B D168A.
Assay [3] concerns genotype 1a (H77) wild-type transient HCV replicon in Huh-7-derived cells. The assay is described as follows: Transient-transfected HCV replicon, genotype 1a wild type. The note with it: Hepatitis C virus; transient-transfected replicon genotype 1a wild type, 72 h; read-out: EC50 1A WT.
In assay [4] the test system is genotype 1b stable HCV replicon (Con1) in Huh-7-derived cells. The assay can be described thus: Stable subgenomic HCV replicon, genotype 1b, Renilla luciferase. The settings on record: Hepatitis C virus, stable replicon genotype 1b, 72 h, read-out: EC50 1B RLUC. The protocol: Antiviral potency (EC50) was determined in both stable subgenomic HCV replicon cell lines and transient-transfected HCV replicon cells. The term half maximal effective concentration (EC50) refers to the concentration of a drug which induces a response halfway between the baseline and maximum after the exposure time specified below.
Stable subgenomic HCV replicons for genotype 1a, 1b, 2a, 3a, and 4a were established in Huh-7-derived cells as described by Lohmann et al (Lohmann V, Korner F, Koch J, et al Replication of subgenomic hepatitis C virus RNAs in a hepatoma cell line. Science 1999; 285:119-3). Each stable cell line contains a bicistronic HCV replicon that encodes a humanized Renilla luciferase (hRLuc) reporter gene fused to a selectable neomycin-resistance gene, followed by an EMCV IRES and the NS3-NS5B coding region of HCV. […] Luciferase activity was measured as a marker for intracellular HCV replication levels.
The genotype 1a stable replicon was derived from the H77 HCV strain and contained adaptive mutations P1496L and S2204I. The genotype 1b stable replicon was derived from the Con1 HCV strain and contained adaptive mutations E1202G, T1280I, and K1846T. […] The genotype 3a stable replicon was derived from the S52 HCV strain and contained adaptive mutations P1121 L, A1198T and S2210I (equivalent to S2204I in genotype 1). The genotype 4a stable replicon was derived from the ED43 HCV strain and contained adaptive mutations Q1691R and S2204I. All replicon cell lines were propagated in Huh-7-derived cells and maintained in Dulbecco's modified Eagle's Medium (DMEM) supplemented with 10% fetal bovine serum (FBS) and 0.5 mg/ml G418.
To perform EC50 assays, cells from each HCV replicon were dispensed into 384-well plates. Compounds were dissolved in DMSO at a concentration of 10 mM and diluted in DMSO using an automated pipetting instrument. Three-fold serially diluted compounds were directly added to the cells using an automated instrument. DMSO was used as a negative (solvent; no inhibition) control, and a combination of three HCV inhibitors including a protease inhibitor; an NS5A inhibitor and a nucleoside inhibitor was used at concentrations >100×EC50 as a positive control (100% inhibition). Seventy-two hours later, cells were lysed and Renilla luciferase activity were quantified as recommended by the manufacturer (Promega-Madison, Wis.). Non-linear regression was performed to calculate […], values.

The subject of assay [5] is genotype 1b wild-type transient HCV replicon in Huh-7-derived cells. The assay can be described thus: Transient-transfected HCV replicon, genotype 1b wild type. The settings on record: Hepatitis C virus; transient-transfected replicon genotype 1b wild type, 72 h; read-out: EC50 1B WT.
Assay [6] deals with genotype 3a transient HCV replicon (S52) in Huh-7-derived cells. The assay can be described thus: Transient-transfected HCV replicon, genotype 3a wild type. The note with it: Hepatitis C virus; transient-transfected replicon genotype 3a wild type, 72 h; read-out: EC50 3A WT.

This note sets out measurements from patent US9617310B2 (priority 2013, dated 2017).

Each structure is given as a SMILES string. pEC50: −log10 of the molar value.

Turning to `CC(C)(C)[C@@H]1NC(=O)O[C@@H]2C[C@@H]3C[C@@H]3[C@H]2CCCCCc2nc3ccc4ccccc4c3nc2OC2C[C@@H](C(=O)N[C@]3(C(=O)NS(=O)(=O)C4(C)CC4)C[C@H]3C(F)F)N(C2)C1=O` (stereo partly drawn) [Example 22, (33R,35S,91S,93R,94R,95S,5S)-5-(tert-butyl)-N-((1R,2R)-2-(difluoromethyl)-1-(((1-methylcyclopropyl)sulfonyl)carbamoyl)cyclopropyl)-4,7-dioxo-2,8-dioxa-6-aza-1(2,3)-benzo[f]quinoxalina-3(3,1)-pyrrolidina-9(3,4)-bicyclo[3.1.0]hexanacyclotetradecaphane-35-carboxamide], the pEC50 was 8.57 in assay [1]; 7.74 in assay [2]; 8.77 in assay [3]; 8.30 in assay [4]; 8.70 in assay [5]; 8.26 in assay [6].

For `CC(C)(C)[C@@H]1NC(=O)O[C@@H]2C[C@@H]3C[C@@H]3[C@H]2CCCCCc2nc3ccc(C#N)cc3nc2O[C@@H]2C[C@@H](C(=O)N[C@]3(C(=O)NS(=O)(=O)C4(C)CC4)C[C@H]3C(F)F)N(C2)C1=O` [Example 23, (33R,35S,91S,93R,94R,95S,5S)-5-(tert-butyl)-17-cyano-N-((1R,2R)-2-(difluoromethyl)-1-(((1-methylcyclopropyl)sulfonyl)carbamoyl)cyclopropyl)-4,7-dioxo-2,8-dioxa-6-aza-1(2,3)-quinoxalina-3(3,1)-pyrrolidina-9(3,4)-bicyclo[3.1.0]hexanacyclotetradecaphane-35-carboxamide], the pEC50 is 8.64 in assay [1]; 7.96 in assay [2]; 8.92 in assay [3]; 8.53 in assay [4]; 9.05 in assay [5]; 8.02 in assay [6].

For `CC(C)(C)[C@@H]1NC(=O)O[C@@H]2C[C@@H]3C[C@@H]3[C@H]2CCCCCn2c(nc3ccccc3c2=O)O[C@@H]2C[C@@H](C(=O)N[C@]3(C(=O)NS(=O)(=O)C4(C)CC4)C[C@H]3C(F)F)N(C2)C1=O` [Example 24, (1aS,2aR,6S,9S,11R,24aR,24bS)-6-tert-butyl-N-[(1R,2R)-2-(difluoromethyl)-1-{[(1-methylcyclopropyl)sulfonyl]carbamoyl}cyclopropyl]-4,7,18-trioxo-1a,2,2a,4,5,6,7,10,11,20,21,22,23,24,24a,24b-hexadecahydro-1H,9H,18H-8,11-methanocyclopropa[4′,5′]cyclopenta[1′,2′:18,19][1,10,3,6,12]dioxatriazacyclonona decino[11,12-b]quinazoline-9-carboxamide], the pEC50 is 8.82 in assay [1]; 8.48 in assay [2]; 8.77 in assay [3]; 8.52 in assay [4]; 9.10 in assay [5]; 8.12 in assay [6].

Turning to `CC(C)(C)[C@@H]1NC(=O)O[C@@H]2C[C@@H]3C[C@@H]3[C@H]2CCCCCn2c(nc3cc(C#N)ccc3c2=O)O[C@@H]2C[C@@H](C(=O)N[C@]3(C(=O)NS(=O)(=O)C4(C)CC4)C[C@H]3C(F)F)N(C2)C1=O` [Example 25, (1aS,2aR,6S,9S,11R,24aR,24bS)-6-tert-butyl-15-cyano-N-[(1R,2R)-2-(difluoromethyl)-1-{[(1-methylcyclopropyl)sulfonyl]carbamoyl}cyclopropyl]-4,7,18-trioxo-1a,2,2a,4,5,6,7,10,11,20,21,22,23,24,24a,24b-hexadecahydro-1H,9H,18H-8,11-methanocyclopropa[4′,5′]cyclopenta[1′,2′:18,19][1,10,3,6,12]dioxatriazacyclonona decino[11,12-b]quinazoline-9-carboxamide], the pEC50 in assay [1] is 8.70; in assay [2], 8.36; in assay [3], 8.74; in assay [4], 8.56; in assay [5], 9.15; in assay [6] it was 8.12.

`COc1ccc2c(=O)n3c(nc2c1)O[C@@H]1C[C@@H](C(=O)N[C@]2(C(=O)NS(=O)(=O)C4(C)CC4)C[C@H]2C(F)F)N(C1)C(=O)[C@H](C(C)(C)C)NC(=O)O[C@@H]1C[C@@H]2C[C@@H]2[C@H]1CCCCC3` [Example 26, (1aS,2aR,6S,9S,11R,24aR,24bS)-6-tert-butyl-N-[(1R,2R)-2-(difluoromethyl)-1-{[(1-methylcyclopropyl)sulfonyl]carbamoyl}cyclopropyl]-15-methoxy-4,7,18-trioxo-1a,2,2a,4,5,6,7,10,11,20,21,22,23,24,24a,24b-hexadecahydro-1H,9H,18H-8,11-methanocyclopropa[4′,5′]cyclopenta[1′,2′:18,19][1,10,3,6,12]dioxatriazacyclonona decino[11,12-b]quinazoline-9-carboxamide]: the pEC50 in assay [1] is 9.00; in assay [2] it was 9.05; in assay [3] it was 9.10; in assay [4], 8.74; in assay [5] it was 9.40; in assay [6], 8.35.
